From patent publication US4478845A, “Antiinflammatory and/or analgesic imidazoimidazoles” (E. I. Du Pont de Nemours and Company, priority 1983, dated 1984)
Like-named read-outs stand apart in the source and are kept apart here.

Tests used:
[1] = system: adjuvant-induced arthritis in rats (paw volume); test: Established Adjuvant-Induced Arthritis in Rats; assay type: in vivo, Charles River Lewis male rats; conditions: for ED50: Rattus norvegicus, read-out: Adjuvant Arthritic ED50; for percent reduction in paw volume at the indicated dose: at 45 (mg/kg)
[2] = system: phenylquinone-induced writhing in mice; test: Phenylquinone Writhing Test; assay type: in vivo, female white mice; conditions: Mus musculus, read-out: Phenylquinone Writhing (PQW) ED50
Procedure: A test compound suspended in 1% methylcellulose was given orally to fasted (17-21 hours) female white mice, 5-20 animals per double blind test. Aqueous (0.01% phenyl-p-benzoquinone) phenylquinone, 0.20 ml per mouse, was injected intraperitoneally 6 minutes before observations were begun.

[3] = oral, rats, 7 daily doses, ED50% decrease from control paw volume (uninjected, left hind paw)
[4] = oral, fasted female mice, effective analgesic dose for 50% of the mice

SMILES | ED50 ([1]; po) [mg/kg] | ED50 [1, 3] [mg/kg] | ED50 ([2]; po) [mg/kg] | percent reduction in paw volume at the indicated dose ([1]; oral, rats, 7 daily doses) [%] | ED50 [2, 4] [mg/kg]
CC(=O)Oc1ccccc1C(=O)O [Aspirin] | 305 |  |  |  | 
CC1=NC(C(F)(F)F)(C(F)(F)F)c2nc(-c3ccc(F)cc3)c(-c3ccc(F)cc3)n21 [Example 1, 2,3-bis(4-Fluorophenyl)-5-methyl-7,7-bis(trifluoromethyl)imidazo[1,5-a]imidazole] |  | 6.5 | 135 |  | 
COc1ccc(-c2nc3n(c2-c2ccc(OC)cc2)C(C)=NC3(C(F)(F)F)C(F)(F)F)cc1 [Example 2, 2,3-bis(4-Methoxyphenyl)-5-methyl-7,7-bis(trifluoromethyl)imidazo[1,5-a]imidazole] |  |  |  | 31 | 21
CC1=NC(C(F)(F)F)(C(F)(F)F)c2nc(-c3ccc(C)cc3)c(-c3ccc(C)cc3)n21 [Example 3, 2,3-bis(4-Methylphenyl)-5-methyl-7,7-bis(trifluoromethyl)imidazo[1,5-a]imidazole] |  |  |  | 44 | > 108
CC(C)Cc1ccc(C(C)C(=O)O)cc1 (stereo not shown) [Ibuprofen] |  | 100 |  |  | 10
COc1ccc2c(c1)c(CC(=O)O)c(C)n2C(=O)c1ccc(Cl)cc1 [Indomethacin] | 0.3 |  | 0.35 |  | 
CCCCC1C(=O)N(c2ccccc2)N(c2ccccc2)C1=O [Phenylbutazone] |  | 10 |  |  | 80
